Legend:
RORγt = biological target: T1, RORγt (Homo sapiens, UniProt P51449); assay: RORγt cellular reporter gene detection assay; assay type: cell-based; conditions: 24 hrs; for EC50: HEK 293 cells co-transfected with pFN26A-RORγt-LBD and pG14.35, in presence of antagonist Ursolic acid, top concentration 50 μM; for Cellular Reporter Assay Amax: upper activation limit, HEK 293 cells, in presence of antagonist Ursolic acid;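 for Cellular Reporter Assay Amax: Ursolic Acid added as 5 µL of 20 µM medium per well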
T1 construct: The plasmid of pFN26A-RORγt-LBD and pG14.35 (Promega, Cat. No. E1370) were co-transfected into HEK 293 cells; expressed in transfected cells; host or cells: HEK 293 cells (Cat. No. GNHu18)
T1 sequence (P51449 269-508 limits assumed): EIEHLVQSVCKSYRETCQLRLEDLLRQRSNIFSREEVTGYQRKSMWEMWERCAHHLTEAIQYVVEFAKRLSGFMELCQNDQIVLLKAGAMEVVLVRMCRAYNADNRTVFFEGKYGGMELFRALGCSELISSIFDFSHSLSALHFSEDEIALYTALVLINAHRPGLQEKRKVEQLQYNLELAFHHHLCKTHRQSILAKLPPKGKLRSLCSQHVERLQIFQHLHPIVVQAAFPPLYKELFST
Method in brief: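 Compounds, titrated 4-fold from a 50 μM top concentration, were added with Ursolic acid to HEK293 cells carrying a RORγt-LBD plasmid and a reporter plasmid. After 24 h at 37° C, dual firefly/Renilla luciferase readout; four-parameter curves gave EC50 and maximal activation (Amax).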

RORγt-LBD = biological target: T2, RORγt-LBD (Homo sapiens, UniProt P51449); assay: Time-resolved fluorescence resonance energy-transfer assay (TR-FRET), co-activator peptide recruitment; assay type: biochemical; parameters: TR-FRET Biochemical Amax: unit not given here; conditions: for EC50: His-RORγt-LBD 30 nM, SRC peptide 500 nM, agonistic activity, averages of one or more measurements, read-out: TR-FRET Biochemical EC50/; for TR-FRET Biochemical Amax: upper activation limit, His-RORγt-LBD, SRC peptide
T2 sequence (P51449 269-508 limits assumed): T1 sequence (P51449 269-508 limits assumed)
Method in brief: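 This agonist-mode TR-FRET used 30 nM His-tagged RORγt-LBD, 500 nM biotinylated SRC peptide, 0.25 nM Eu-anti-His and 5 nM APC-streptavidin in pH 7.0 Tris/KCl buffer with DTT and Triton. A 7-concentration, 5-fold compound series was incubated at 4 °C overnight plus 1 h at room temperature, and the 665/615 nm signal was read.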

For `N#Cc1cc(Cl)cc(-c2ccc3c(c2)N(S(=O)(=O)c2cccc(C(F)(F)F)c2)C[C@@H]2CN(CC(=O)O)CCN32)c1` [Example 97, (S)-2-(8-(3-chloro-5-cyanophe-nyl)-6-((3-(trifluoromethyl)phe-nyl)sulfonyl)-1,2,4,4a,5,6-hexa-hydro-3H-pyrazino[1,2-a]quinox-alin-3-yl)acetic acid], the EC50 (RORγt) was 0.605 µM, the “Cellular Reporter Assay Amax” value (RORγt) was 2.5 and the EC50 (RORγt-LBD) was 0.037 µM. For the same molecule, the “TR-FRET Biochemical Amax” value (RORγt-LBD) was 0.61.
In the case of `O=C(O)[C@H]1CCN2c3ccc(-c4cc(F)cc(OC(F)F)c4)cc3N(S(=O)(=O)c3cccc(C(F)(F)F)c3)C[C@@H]2C1` [Example 116, (6aS,8S)-3-(3-(difluoromethoxy)-5-fluorophenyl)-5-((3-(trifluoromethyl)phenyl)sulfonyl)-6,6a,7,8,9,10-hexahydro-5H-pyrido[1,2-a]quinoxaline-8-carboxylic acid], the EC50 (RORγt) is reported as 0.301 µM, the “Cellular Reporter Assay Amax” value (RORγt) is reported as 5.4 and the EC50 (RORγt-LBD) is reported as 0.0434 µM. The “TR-FRET Biochemical Amax” value (RORγt-LBD) was 0.65.
In the case of `CC(=O)N1CCN2c3ccc(/C=C(\C)c4c(F)cccc4Cl)cc3N(S(=O)(=O)c3cccc(C(F)(F)F)c3)C[C@@H]2C1` [Example 15, (S,E)-1-(8-(2-(2-chloro-6-fluorophenyl)prop-1-en-1-yl)-6-((3-(trifluoromethyl)phenyl)sulfonyl)-1,2,4,4a,5,6-hexahydro-3H-pyrazino [1,2-a]quinoxalin-3-yl)ethan-1-one], the EC50 (RORγt) is reported as 0.134 µM, the “Cellular Reporter Assay Amax” value (RORγt) is reported as 3.2 and the EC50 (RORγt-LBD) is reported as 0.025 µM. For the same molecule, the “TR-FRET Biochemical Amax” value (RORγt-LBD) was 0.83.
`O=S(=O)(c1cccc(C(F)(F)F)c1)N1C[C@@H]2CN(C(CO)CO)CCN2c2ccc(-c3cc(F)cc(OC(F)F)c3)cc21` [Example 70, (S)-2-(8-(3-(difluoromethoxy)-5-fluorophenyl)-6-((3-(trifluorometh-yl)phenyl)sulfonyl)-1,2,4,4a,5,6-hexahydro-3H-pyrazino[1,2-a]quinoxalin-3-yl)propane-1,3-diol] was tested, and the EC50 (RORγt) was 0.531 µM, the “Cellular Reporter Assay Amax” value (RORγt) was 4.2 and the EC50 (RORγt-LBD) was 0.0642 µM. For the same molecule, the “TR-FRET Biochemical Amax” value (RORγt-LBD) was 0.99.
`CC(=O)N1CCN2c3ccc(/C=C/c4c(Cl)cccc4C(F)(F)F)cc3N(S(=O)(=O)c3cccc(OC(F)(F)F)c3)C[C@@H]2C1` [Example 84, (S,E)-1-(8-(2-chloro-6-(trifluoromethyl)styryl)-6-((3-(trifluoromethoxy)phenyl)sulfonyl)-1,2,4,4a,5,6-hexahydro-3H-pyrazino[1,2-a]quinoxalin-3-yl)ethan-1-one] was tested, and the EC50 (RORγt) was 1.14 µM, the “Cellular Reporter Assay Amax” value (RORγt) was 4.7 and the EC50 (RORγt-LBD) was 0.207 µM. The “TR-FRET Biochemical Amax” value (RORγt-LBD) was 0.76.
`C/C(=C\c1ccc2c(c1)N(S(=O)(=O)c1cccc(C(F)(F)F)c1)C[C@@H]1CN(C3COC3)CCN21)c1c(F)cccc1Cl` [Example 33, (S,E)-8-(2-(2-chloro-6-fluoro-phenyl)prop-1-en-1-yl)-3-(oxetan-3-yl)-6-((3-(trifluoro-methyl)pheny4)sulfonyl)-2,3,4,4a,5,6-hexahydro-1H-pyrazino[1,2-a]quinoxaline] was tested, and the EC50 (RORγt) was 2.04 µM, the “Cellular Reporter Assay Amax” value (RORγt) was 5.2 and the EC50 (RORγt-LBD) was 0.0457 µM. For the same molecule, the “TR-FRET Biochemical Amax” value (RORγt-LBD) was 0.93.
For `O=S(=O)(c1cccc(C(F)(F)F)c1)N1C[C@@H]2CC(F)CCN2c2ccc(-c3cc(F)cc(OC(F)F)c3)cc21` (stereo partly drawn) [Example 103, (6aS)-3-(3-(difluoromethoxy)-5-fluorophenyl)-8-fluoro-5-((3-(trifluoromethyl)phenyl)sulfonyl)-6,6a,7,8,9,10-hexahydro-5H-pyrido[1,2-a]quinoxaline], the EC50 (RORγt) was 1.3 µM, the “Cellular Reporter Assay Amax” value (RORγt) was 2.7 and the EC50 (RORγt-LBD) was 0.0411 µM. The “TR-FRET Biochemical Amax” value (RORγt-LBD) was 0.49.
`C/C(=C\c1ccc2c(c1)N(S(=O)(=O)c1cccc(C(F)(F)F)c1)C[C@@H]1C[C@](C)(OCCC(=O)O)CCN21)c1c(F)cccc1Cl` [Example 121] was tested, and the EC50 (RORγt) was 0.378 µM, the “Cellular Reporter Assay Amax” value (RORγt) was 2.4 and the EC50 (RORγt-LBD) was 0.0121 µM. The “TR-FRET Biochemical Amax” value (RORγt-LBD) was 0.98.
For `N#Cc1cc(F)cc(-c2ccc3c(c2)N(S(=O)(=O)c2cccc(C(F)(F)F)c2)C[C@@H]2CN(CC(=O)O)CCN32)c1` [Example 95, (S)-2-(8-(3-cyano-5-fluorophe-nyl)-6-((3-(trifluoromethyl)phe-nyl)sulfonyl)-1,2,4,4a,5,6-hexa-hydro-3H-pyrazino[1,2-a]quin-oxalin-3-yl)acetic acid], the EC50 (RORγt) was 0.649 µM, the “Cellular Reporter Assay Amax” value (RORγt) was 1.4 and the EC50 (RORγt-LBD) was 0.0419 µM. For the same molecule, the “TR-FRET Biochemical Amax” value (RORγt-LBD) was 0.40.
For `NC(=S)N1CCN2c3ccc(/C=C/c4c(Cl)cccc4C(F)(F)F)cc3N(S(=O)(=O)c3cccc(C(F)(F)F)c3)C[C@@H]2C1` [Example 65, (S,E)-8-(2-chloro-6-(trifluoro-methyl)styryl)-6-((3-(trifluoro-methyl)phenyl)sulfonyl)-1,2,4,4a,5,6-hexahydro-3H-pyrazino [1,2-a]quinoxaline-3-carbothio-amide], the EC50 (RORγt) was 0.391 µM, the “Cellular Reporter Assay Amax” value (RORγt) was 2.8 and the EC50 (RORγt-LBD) was 0.0084 µM. The “TR-FRET Biochemical Amax” value (RORγt-LBD) was 0.89.
In the case of `CC1(C)C=C(c2ccc3c(c2)N(S(=O)(=O)c2cccc(C(F)(F)F)c2)C[C@@H]2CN(C(=O)CC#N)CCN32)CC(C)(C)O1` [Example 31, (S)-3-oxo-3-(8-(2,2,6,6-tetramethyl-3,6-dihydro-2H-pyran-4-yl)-6-((3-(trifluoro-methyl)phenyl)sulfonyl)-1,2,4,4a,5,6-hexahydro-3H-pyrazino[1,2-a]quinoxa-lin-3-yl)propanenitrile], the EC50 (RORγt) is reported as 0.419 µM, the “Cellular Reporter Assay Amax” value (RORγt) is reported as 3.4 and the EC50 (RORγt-LBD) is reported as 0.0115 µM. For the same molecule, the “TR-FRET Biochemical Amax” value (RORγt-LBD) was 0.97.
With `CS(=O)(=O)CCOC1CCN2c3ccc(-c4cc(F)cc(OC(F)F)c4)cc3N(S(=O)(=O)c3cccc(C(F)(F)F)c3)C[C@@H]2C1` (stereo partly drawn) [Example 111, (6aS)-3-(3-(difluoromethoxy)-5-fluorophenyl)-8-((methylsulfonyl)ethoxy)-5-((3-(trifluoromethyl)phenyl)sulfonyl)-6,6a,7,8,9,10-hexahydro-5H-pyrido[1,2-a]quinoxaline] the EC50 (RORγt) was 0.564 µM, the “Cellular Reporter Assay Amax” value (RORγt) was 3.2 and the EC50 (RORγt-LBD) was 0.0189 µM. The “TR-FRET Biochemical Amax” value (RORγt-LBD) was 0.64.
With `C/C(=C\c1ccc2c(c1)N(S(=O)(=O)c1cccc(C(F)(F)F)c1)C[C@@H]1CN(C[C@@H](O)CO)CCN21)c1c(F)cccc1Cl` [Example 37, (R)-3-((S)-8-((E)-2-(2-chloro-6-fluorophenyl)prop-1-en-1-yl)-6-((3-(trifluoromethyl)phe-nyl)sulfonyl)-1,2,4,4a,5,6-hexa-hydro-3H-pyrazino[1,2-a]qui-noxalin-3-yl)propane-1,2-diol] the EC50 (RORγt) was 0.366 µM, the “Cellular Reporter Assay Amax” value (RORγt) was 3.7 and the EC50 (RORγt-LBD) was 0.0375 µM. For the same molecule, the “TR-FRET Biochemical Amax” value (RORγt-LBD) was 1.21.
With `O=S(=O)(c1cccc(C(F)(F)F)c1)N1CC2C[S+]([O-])CCN2c2ccc(-c3cc(F)cc(OC(F)F)c3)cc21` (stereo not drawn) [Example 101, 8-(3-(difluoromethoxy)-5-fluorophenyl)-6-((3-(trifluoromethyl)phenyl)sulfonyl)-1,2,4,4a,5,6-hexahydro-[1,4]thiazino[4,3-a]quinoxaline 3-oxide] the EC50 (RORγt) was 0.913 µM, the “Cellular Reporter Assay Amax” value (RORγt) was 3.9 and the EC50 (RORγt-LBD) was 0.0409 µM. For the same molecule, the “TR-FRET Biochemical Amax” value (RORγt-LBD) was 0.45.
`CS(=O)(=O)N1CCN2c3ccc(-c4cc(F)cc(OC(F)F)c4)cc3N(S(=O)(=O)c3cccc(C(F)(F)F)c3)C[C@@H]2C1` [Example 8, (S)-8-(3-(difluoromethoxy)-5-fluorophenyl)-3-(methylsulfonyl)-6-((3-(trifluoromethyl)phenyl)sulfonyl)-2,3,4,4a,5,6-hexahydro-1H-pyrazino[1,2-a]quinoxaline] was tested, and the EC50 (RORγt) was 0.0904 µM, the “Cellular Reporter Assay Amax” value (RORγt) was 5.5 and the EC50 (RORγt-LBD) was 0.0133 µM. The “TR-FRET Biochemical Amax” value (RORγt-LBD) was 1.22.

Reference: patent publication US20220009894A1, “1,2,3,4-TETRAHYDROQUINOXALINE DERIVATIVE, PREPARATION METHOD THEREFOR AND APPLICATION THEREOF” (Abbisko Therapeutics Co., Ltd., priority 2019, published 2022)
